Test results reported in patent US20260076975A1, “TPK AGONIST AND METHOD FOR USING SAME TO TREAT NEURODEGENERATIVE DISEASES” (SHANGHAI RAISING PHARMACEUTICAL CO., LTD., priority 2022, published 2026).
Read-outs that look alike come from different tables or passages of the source.

Target: TPK enzyme (Homo sapiens, UniProt Q9H3S4)
Experiment: TPK enzyme activity test (TDP formation from thiamine and ATP, HPLC detection)
Assay type: biochemical
Description: The purpose of this example was to test the promoting effect of compounds on TPK enzyme activity and evaluate the in vitro activity of the compounds based on EC50 and Emax.
1.1) The constant-temperature water-bath shaker was pre-heated half an hour in advance at a pre-heating temperature of 37° C.
1.2) The stock solution of the compound to be tested was taken out, allowed to thaw at room temperature, and then diluted to the required concentration.
1.3) The required reagents were placed on ice to thaw.
2.1) For each reaction system, TPK enzyme solution, Tris-HCl buffer solution, and ATP solution were added. The concentration of ATP used was 1-500 mM. The above three solutions were formulated into a homogeneous mixture.
2.2) The mixture of the above three solutions was dispensed into centrifuge tubes. Then, the compound at the required concentration was added to each centrifuge tube. Finally, thiamine solution (1-100 μM) was added. After the addition of the above system was completed, the centrifuge tubes were tightly capped, inserted into a floating board, and placed in the constant-temperature water-bath shaker that had been pre-heated to 37° C. for incubation for 0.5-2.0 hours.
2.3) After the incubation was completed, perchloric acid stop solution was added and mixed well. Samples were taken into 1.5 mL centrifuge tubes and stored at −20° C.
3.1) The samples stored at −20° C. were taken out, thawed at room temperature, and then subjected to derivatization treatment. The samples were placed in centrifuge tubes, a potassium ferricyanide derivatization reagent was added, and finally phosphoric acid stop solution was added to stop the reaction.
3.2) The derivatized samples were placed in sample vials for liquid chromatography analysis, and the contents of TDP/thiamine were detected by high performance liquid chromatography. TKP enzyme activity=TDP (nM)/mg protein/min.
The effects of the compounds of the present invention on TPK enzyme activity at different concentrations were determined according to the above procedures.

[1] = promoting effect on TPK enzyme activity
[2] = promoting effect on TPK enzyme activity, calculated with the effect of DMSO on TPK enzyme activity as 100%, read-out: Emax
[3] = promoting effect on TPK enzyme activity, calculated with the effect of DMSO on TPK enzyme activity as 100%

Sequence of TPK enzyme (Q9H3S4 whole entry): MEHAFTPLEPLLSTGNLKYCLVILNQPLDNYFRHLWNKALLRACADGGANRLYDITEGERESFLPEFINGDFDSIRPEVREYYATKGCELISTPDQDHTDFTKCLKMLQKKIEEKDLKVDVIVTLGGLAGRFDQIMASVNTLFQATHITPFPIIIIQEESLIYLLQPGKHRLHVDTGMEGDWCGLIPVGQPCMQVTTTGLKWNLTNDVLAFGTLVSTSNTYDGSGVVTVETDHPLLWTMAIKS

SMILES	Emax [%]	EC50 [1] [µM]	Emax [2] [%]	Emax [3] [%]
COc1ccc(/C=C/CC(=O)N2CCN(c3cccc(Cl)c3Cl)CC2)cc1OC [Compound 59, (E)-1-(4-(2,3-dichlorophenyl)piperazin-1-yl)-4-(3,4-dimethoxyphenyl)but-3-en-1-one]	206	1.22		
COc1ccc(/C=C/CN2CCN(c3cccc(Cl)c3Cl)CC2)cc1OC [Compound 60, (E)-1-(2,3-dichlorophenyl)-4-(3-(3,4-dimethoxyphenyl)allyl)piperazine]		1.28	234	
CC(O)COc1ccc(/C=C/CN2CCN(c3cccc(Cl)c3Cl)CC2)cc1O (stereo not drawn) [Compound 62, (E)-5-(3-(4-(2,3-dichlorophenyl)piperazin-1-yl)prop-1-en-1-yl)-2-(2-hydroxypropoxy)phenol]		0.918	137	
COc1ccc(CCNC(=O)N2CCN(c3cccc(Cl)c3Cl)CC2)cc1OC [Compound 64, 4-(2,3-dichlorophenyl)-N-(3,4-dimethoxyphenethyl)piperazine-1-carboxamide]	184	4.71		
COc1ccc(NC(=O)CNC(=O)N2CCN(c3cccc(Cl)c3Cl)CC2)cc1OC [Compound 65, 4-(2,3-dichlorophenyl)-N-(2-((3,4-dimethoxyphenyl)amino)-2-oxoethyl)piperazine-1-carboxamide]	133			
COc1cccc(NC(=O)CNC(=O)N2CCN(c3cccc(Cl)c3Cl)CC2)c1 [Compound 68, 4-(2,3-dichlorophenyl)-N-(2-((3-methoxyphenyl)amino)-2-oxoethyl)piperazine-1-carboxamide]	144			
COc1cncc(C#CCN2CCN(c3cccc(Cl)c3Cl)CC2)c1 [Compound 69, 1-(2,3-dichlorophenyl)-4-(3-(5-methoxypyridin-3-yl)prop-2-yn-1-yl)piperazine]	194	2.72		
Oc1cncc(C#CCN2CCN(c3cccc(Cl)c3Cl)CC2)c1 [Compound 70, 5-(3-(4-(2,3-dichlorophenyl)piperazin-1-yl)prop-1-yn-1-yl)pyridin-3-ol]	147			
COc1cncc(C#CCCN2CCN(c3cccc(Cl)c3Cl)CC2)c1 [Compound 71, 1-(2,3-dichlorophenyl)-4-(4-(5-methoxypyridin-3-yl)but-3-yn-1-yl)piperazine]	189	1.19		
COc1cncc(C#CC(=O)N2CCN(c3cccc(Cl)c3Cl)CC2)c1 [Compound 72, 1-(4-(2,3-dichlorophenyl)piperazin-1-yl)-3-(5-methoxypyridin-3-yl)prop-2-yn-1-one]	171	3.24		
COc1ccc(/C=C/CN2CCN(c3nc4ccccc4s3)CC2)cc1OC [Compound 73, (E)-2-(4-(3-(3,4-dimethoxyphenyl)allyl)piperazin-1-yl)benzo[d]thiazole]		0.65	155	
COc1ccc(/C=C/C(=O)N2CCN(c3nc4ccccc4s3)CC2)cc1OC [Compound 74, (E)-1-(4-(benzo[d]thiazol-2-yl)piperazin-1-yl)-3-(3,4-dimethoxyphenyl)prop-2-en-1-one]		12.1	182	
Cc1ccc2c(n1)N(CCCCCN1CCN(c3cccc(Cl)c3Cl)CC1)CCO2 [Compound 75, 4-(5-(4-(2,3-dichlorophenyl)piperazin-1-yl)pentyl)-6-methyl-3,4-dihydro-2H-pyrido[3,2-b][1,4]oxazine]	136	0.22		
Cc1ccc2c(n1)N(CCC(=O)NCCN1CCN(c3cc(Cl)ccc3C)CC1)CCO2 [Compound 76, N-(2-(4-(5-chloro-2-methylphenyl)piperazin-1-yl)ethyl)-3-(6-methyl-2,3-dihydro-4H-pyrido[3,2-b][1,4]oxazin-4-yl)propanamide]		3.46	147	
Cc1ccc2c(n1)N(CCCCCN1CCN(c3cc(Cl)ccc3C)CC1)CCO2 [Compound 77, 4-(5-(4-(5-chloro-2-methylphenyl)piperazin-1-yl)pentyl)-6-methyl-3,4-dihydro-2H-pyrido[3,2-b][1,4]oxazine]	146			
COc1cc2c(cc1OC)N(CCCCN1CCN(c3cccc(C(F)(F)F)c3)CC1)C(=O)C2 [Compound 78, 5,6-dimethoxy-1-(4-(4-(3-(trifluoromethyl)phenyl)piperazin-1-yl)butyl)indol-2-one]	130			
COc1cc2c(cc1OC)N(CCCCN1CCN(c3cccc(Cl)c3Cl)CC1)C(=O)C2 [Compound 79, 1-(4-(4-(2,3-dichlorophenyl)piperazin-1-yl)butyl)-5,6-dimethoxyindolin-2-one]	133			
CCOC(=O)c1nc(CNC(=O)CCCN2CCN(c3nc4ccccc4s3)CC2)sc1C [Compound 80, ethyl 2-((4-(4-(benzo[d]thiazol-2-yl)piperazin-1-yl)butanamido)methyl)-5-methylthiazole-4-carboxylate]		2.55	150	
CCOC(=O)c1nc(CNC(=O)CCCN2CCN(c3cccc(Cl)c3Cl)CC2)sc1C [Compound 82, ethyl 2-((4-(4-(2,3-dichlorophenyl)piperazin-1-yl)butanamido)methyl)-5-methylthiazole-4-carboxylate]		2.52	156	

SMILES	Emax [%]	EC50 [1] [µM]	Emax [2] [%]	Emax [3] [%]
Cc1ccc(Cl)cc1N1CCN(CCNC(=O)CC2Oc3ccccc3NC2=O)CC1 (stereo not drawn) [Compound 84]		3.86		154.70
O=C(CC1Oc2ccccc2NC1=O)NCCN1CCN(c2cccc(Cl)c2Cl)CC1 (stereo not drawn) [Compound 85, N-(2-(4-(2,3-dichlorophenyl)piperazin-1-yl)ethyl)-2-(3-oxo-3,4-dihydro-2H-benzo[b][1,4]oxazin-2-yl)acetamide]			168	
Cc1ccc(Cl)cc1N1CCN(CCNC(=O)CC2Oc3ccccc3NC2=O)CC1 (stereo not drawn) [Compound 91]		25.8		200.91
CN(CCOCc1cccc(Cl)c1Cl)CCOc1ccc2c(c1)NC(=O)CC2 [Compound 98, 7-(2-((2-((2,3-dichlorobenzyl)oxy)ethyl)(methyl)amino)ethoxy)-3,4-dihydroquinolin-2(1H)-one]			139	
O=C1CCc2ccc(OCCNCCC3CC3c3cccc(Cl)c3Cl)cc2N1 (stereo not drawn) [Compound 102, 7-(2-((2-(2-(2,3-dichlorophenyl)cyclopropyl)ethyl)amino)ethoxy)-3,4-dihydroquinolin-2(1H)-one]		12.4	170	
O=C1CCc2ccc(OCCN3CCc4cc(Cl)ccc43)cc2N1 [Compound 103, 7-(2-(5-chloroindolin-1-yl)ethoxy)-3,4-dihydroquinolin-2(1H)-one]		17.3	137	
O=C1CCc2cc(OCCCN3CC(=O)Nc4ccc(Cl)cc43)ccc2N1 [Compound 115, 6-chloro-4-(3-((2-oxo-1,2,3,4-tetrahydroquinolin-6-yl)oxy)propyl)-3,4-dihydroquinoxalin-2(1H)-one]			159	
COc1cc2c(cc1OC)C(CCCCC(=O)NCc1ccc(C(C)C)cc1)C(=O)N2 (stereo not drawn) [Compound 132, 5-(5,6-dimethoxy-2-oxoindolin-3-yl)-N-(4-isopropylbenzyl)pentanamide]			120	
CN(c1cccc(Cl)c1Cl)[C@@H]1CCN(CCCCOc2ccc3c(c2)NC(=O)CC3)C1 [Compound 133, (R)-7-(4-(3-((2,3-dichlorophenyl)(methyl)amino)pyrrolidin-1-yl)butoxy)-3,4-dihydroquinolin-2(1H)-one]		10.8	167	
COc1ccc(Cn2c(C(=O)N3CCC(CCOc4ccc5c(c4)NC(=O)CC5)CC3)cc3sccc32)cc1 [Compound 134, 7-(2-(1-(4-(4-methoxybenzyl)-4H-thieno[3,2-b]pyrrole-5-carbonyl)piperidin-4-yl)ethoxy)-3,4-dihydroquinolin-2(1H)-one]			149	
C[C@@H]1C[C@@H](COc2ccc3c(c2)NC(=O)CC3)CN(CC[C@@H](N)c2cccc(Cl)c2Cl)C1 [Compound 135, 7-(((3R,5R)-1-((R)-3-amino-3-(2,3-dichlorophenyl)propyl)-5-methylpiperidin-3-yl)methoxy)-3,4-dihydroquinolin-2(1H)-one]			133	
O=C1NCCN1CCN1CCC(c2cn(-c3ccc(F)cc3)c3ccc(Cl)cc23)CC1 [Compound 136]		2.79	137	
CC(C)(C)NC(=O)NC(=O)CN1CCC(c2c[nH]c3ccccc23)CC1 [Compound 137]		110	146	
O=C(CN1CCC(c2c[nH]c3ccccc23)CC1)NC(=O)NC1CC1 [Compound 138]		1.01	180	
O=C(CCc1c[nH]c2ccccc12)N1CCN(CC(=O)N2CCCC2)CC1 [Compound 139]		8.09	191	
O=C(CN1CCN(C(=O)CCC2Cc3ccccc3NC2=O)CC1)Nc1ccccc1Cl (stereo not drawn) [Compound 140]		8.75	203	
O=C1CCc2cc(OCC(=O)N3CCCN(Cc4ccc(Cl)cc4)CC3)ccc2N1 [Compound 141]			124	
Cc1cc2c(cc1S(=O)(=O)N(C)CC(=O)NCc1ccc(F)cc1)OCC(=O)N2 [Compound 142]			126	
